In one experiment the test system is ileum. Nature of the experiment: Magnus test: carbachol-induced contraction of isolated rat ileum. The following applies: test compound 10 μM, then carbachol 50 nM, 100% = carbachol 1000 nM, 0% = DMSO + carbachol 50 nM, average ± standard error, read-out: Enhancement ratio P of the contraction force. The protocol: 9- to 15-week-aged SD female rats (Japan SLC, Inc.) were exsanguinated to death by amputation of carotid artery under isoflurane anesthesia. Then, the ileum was removed from each rat, and cut to a length of 2 cm while excising the mesentery and connective tissue, to prepare an intestinal sample. In a Magnus tank, this sample was immersed and suspended in 20 mL of a Krebs solution at 37° C. (118 mM NaCl, 4.7 mM KCl, 2.5 mM CaCl2, 1.2 mM MgSO4, 1.2 mM KH2PO4, 11 mM D-glucose, 20 mM NaHCO3) aerated with a mixed gas of 95% O2 and 5% CO2. Then, a load of 1 g was applied to the sample to stabilize the tension.
One end of the sample was connected to an isotonic transducer (IT-10, Medical Agent), and tension (contraction force) data was imported to a personal computer via Power Lab (registered trademark) (A&D Instruments Limited). Carbachol (Carbamylcholine Chloride, Cat. No. 036-09841, manufactured by FUJIFILM Wako Pure Chemical Industries, Ltd.) was added to the Krebs solution in the Magnus tank such that the final concentration thereof was 1000 nM, and contraction of the sample was checked. A contraction force Tb of the sample at this time was defined as 100%. Then, the Magnus tank was washed with a Krebs solution three times to wash away carbachol, and the Magnus tank was finally filled with 20 mL of a Krebs solution.
Next, dimethyl sulfoxide (DMSO, Cat. No. 13445-74, manufactured by NACALAI TESQUE, INC.) was added to the Krebs solution in the Magnus tank, then carbachol was added to the Krebs solution in the Magnus tank such that the final concentration thereof was 50 nM, and contraction of the sample was checked. A contraction force Ta of the sample at this time was defined as 0%. Then, the Magnus tank was washed with a Krebs solution three times to wash away carbachol and DMSO, and the Magnus tank was finally filled with 20 mL of a Krebs solution. Next, a test compound dissolved in DMSO was added to the Krebs solution in the Magnus tank such that the final concentration thereof was 10 μM, then carbachol was added to the Krebs solution in the Magnus tank such that the final concentration thereof was 50 nM, and contraction of the sample was checked.
As described above, the contraction force Tb of the sample when carbachol was added at a final concentration of 1000 nM was defined as 100%, and the contraction force Ta of the sample when carbachol was added at a final concentration of 50 nM under the condition that DMSO was added first instead of the test compound was defined as 0%. The contraction force of the sample when carbachol was added at a final concentration of 50 nM under the condition that the test compound was added first at a final concentration of 10 μM was denoted by Tc, and an enhancement ratio P (unit: %) of the contraction force by the test compound was calculated according to the following equation (2). The increase in contraction force by the test compound was evaluated on the basis of the enhancement ratio P. The number of cases in each addition group was 3 to 7.
P=100×(Tc−Ta)/(Tb−Ta) (2)

A further experiment concerns anesthetized mice. Nature of the experiment: Measurement of secreted saliva amount in anesthetized mice. It counts as in vivo, mouse. The following applies: urethane-anesthetized male ICR mice; 10 mg/kg intravenous; cotton balls weighed after 30 minutes; average ± standard error. The protocol: 8-week-aged male ICR mice (Japan SLC, Inc.) were anesthetized with urethane (1650 mg/kg, intraperitoneal administration). After about 1 hour, a test compound or a vehicle (physiological saline containing 10% DMSO (OTSUKA NORMAL SALINE, manufactured by Otsuka Pharmaceutical Factory, Inc.)) was intravenously administered at 10 mg/kg, and immediately after that, one or two absorbent cotton wool balls ([…]) (Roller Cotton (cotton ball) SS, manufactured by Nichiei Co., Ltd.) were inserted into the mouth. The difference between the weight of the absorbent cotton balls after 30 minutes from insertion and the weight of the absorbent cotton balls before insertion was defined as an amount of saliva secreted. At this time, the test compound was dissolved in DMSO and then diluted 10-fold with physiological saline. The administration volumes of the test compound and the vehicle were each set to 5 mL/kg. The experiment was carried out in three parts. The number of cases in each administration group was 3-4.

Consider `COCC1(CN(C)c2cc(-c3cc(F)cc(C(F)(F)F)c3)nc3nc(-c4cnc(N5CCN(CC(=O)O)CC5)cn4)[nH]c23)CCC1` [Example 1, [4-(5-{5-[3-Fluoro-5-(trifluoromethyl)phenyl]-7-[{[1-(methoxymethyl)cyclobutyl]methyl}(methyl)amino]-1H-imidazo[4,5-b]pyridin-2-yl}pyrazin-2-yl)piperazin-1-yl]acetic acid], for which the activation at 10 µM with ileum was 30.4 ± 8.34%. For the same compound, the “Amount of saliva secreted” value in the experiment with anesthetized mice worked out at 9.63 ± 2.90 mg.
Take `COCC1(CN(C)c2cc(-c3cc(C4CC4)nc(C(F)(F)F)c3)nc3nc(-c4cnc(N5CCC(OCC(=O)O)CC5)cn4)[nH]c23)CCCC1` [Example 5, {[1-(5-{5-[2-Cyclopropyl-6-(trifluoromethyl)pyridin-4-yl]-7-[{[1-(methoxymethyl)cyclopentyl]methyl}(methyl)amino]-1H-imidazo[4,5-b]pyridin-2-yl}pyrazin-2-yl)piperidin-4-yl]oxy}acetic acid]: the activation at 10 µM in the experiment with ileum stood at 33.5 ± 3.39%. In addition, the “Amount of saliva secreted” value in the experiment with anesthetized mice is given as 66.30 ± 15.32 mg.

The record behind these values is patent publication US20230000840A1, “THERAPEUTIC AGENTS AND PROPHYLACTIC AGENTS FOR FUNCTIONAL GASTROINTESTINAL DISORDERS AND XEROSTOMIA” (NIPPON SHINYAKU CO., LTD., priority 2019, published 2023).
